Experimental data taken from patent US12053460B2, “Inhibitors of intracellular invasion” (Meharry Medical College, priority 2016, dated 2024).
“Also recorded” adds a separate entry of the source.

Legend:
P. gingivalis = conditions: literature [21]; cited from earlier work
P. gingivalis vesicles = assay: Invasion of P. gingivalis outer membrane vesicles into HOKs (confocal microscopy); conditions: for inhibitory efficiency on internalization of P. gingivalis vesicles (comparison of compounds): vs DMSO control; for reduction of the total number of HOKs with intracellular vesicles: vs HOKs unexposed to compound, P<0.001
Description: Human oral keratinocytes (HOKs) were purchased from ScienCell Research Laboratories (Carlsbad, CA) and cultured in specific media, according to the manufacturer's instructions. Prior to treatment, HOKs (2×10^4) were seeded and grown overnight in poly-L-lysine-coated 35 mm glass bottom dishes (MatTek Corporation) at 37° C., 5% CO2, then exposed to P. gingivalis 33277 (2×10^6) or its vesicles (100 ng) for 0 or proper experimental times. To examine the role of Alop1 and dynasore in the bacterial invasion, the compounds were added to the medium 10 min prior to infection.
HOKs were fixed with 3.8% formaldehyde in a sodium phosphate buffer at room temperature for 10 min after treatment, permeabilized with 0.1% Triton X-100 for 10 min, and blocked with 5% bovine serum albumin in PBS for 1 h. HOKs were then immunostained with pan-specific antibodies of P. gingivalis 33277, and α Tubulin or Actin mono-antibodies (Santa Cruz Biotechnology, Dallas, Texas), followed by goat anti-rabbit IgG conjugated to Alex Fluor 546 (Invitrogen). Nuclei were stained with DAPI (Invitrogen). Confocal images were acquired using a Nikon A1R confocal microscope.
For infection rate determination, the number of HOKs with intercellular P. gingivalis cells or its vesicles were determined and divided by the total number of HOKs by counting the cells in 30 random areas (5.6 μm×5.6 μm) under the confocal microscope. Moreover, fluorescence intensity was determined in 100 individual cells using imaging software NIS-Elements AR 4.20, which reflects the level of intercellular P. gingivalis and its vesicles in the infected HOKs.

fimA = assay: Gene expression in P. gingivalis (qRT-PCR); conditions: 30 μM, 16 h
actin in HOKs = assay: Actin arrangement in HOKs (anti-actin staining, confocal microscopy); format: cell-based, human; conditions: treated for 0, 10, 30 min or 2 h
microtubules in HOKs = assay: Microtubule arrangement in HOKs (anti-α-tubulin staining, confocal microscopy); format: cell-based, human; conditions: 30 μM
P. gingivalis 33277 [1] = assay: Invasion of P. gingivalis cells into HOKs (confocal microscopy); format: cell-based, Porphyromonas gingivalis; conditions: for P. gingivalis cell entry into HOKs: vs untreated HOKs
Excerpt: Nuclei were stained with DAPI (Invitrogen).

P. gingivalis 33277 [2] = assay: Exit of intracellular P. gingivalis cells from HOKs; conditions: 30 μM, 20 h, with gentamicin and metronidazole
[3] = after removal of compounds from growth media

Compound	P. gingivalis invasion of epithelial cells (P. gingivalis)	inhibitory efficiency on internalization of P. gingivalis vesicles (comparison of compounds) (P. gingivalis vesicles; 30 μM, 2 h)	expression of fimA (fimA)	actin arrangement in HOKs (actin in HOKs)	reversibility of the effect on microtubule arrangement (microtubules in HOKs; [3])	start of recovery of microtubule arrangement after compound removal (microtubules in HOKs; [3]) [h]	microtubule arrangement in HOKs (microtubules in HOKs; observed 30 min after treatment)	reduction of the total number of HOKs with intracellular vesicles (P. gingivalis vesicles; 6 μM, 2 h) [%]	fluorescence intensity of internalized vesicles in HOKs (P. gingivalis vesicles; 30 μM, 100 infected HOKs, vs non-exposed HOKs)	reduction of the total number of HOKs with intracellular vesicles (P. gingivalis vesicles; 30 μM, 2 h)	inhibitory activity on P. gingivalis vesicle invasion of HOKs, dose dependence (P. gingivalis vesicles; different doses, 2 h)	host cell invasion by P. gingivalis (P. gingivalis 33277 [1]; at concentrations of 1.2, 6, and 30 μM in vitro)	P. gingivalis cell entry into HOKs (P. gingivalis 33277 [1])	exit of intracellular P. gingivalis from HOKs (P. gingivalis 33277 [2])
C=C1[C@@H](C)[C@H]2[C@H](Cc3ccccc3)NC(=O)[C@]23[C@H](OC(C)=O)/C=C/[C@@](C)(O)C(=O)[C@@H](C)C/C=C/[C@H]3[C@@H]1O [cytochalasin D, reference compound]	inhibited P. gingivalis invasion of epithelial cells	significant inhibitory activity was not observed	–	–	–	–	–	–	–	–	–	–	–	–
O=C(N/N=C/c1ccc(O)c(O)c1)c1cc2ccccc2cc1O [dynasore]	–	highest efficiency	specifically inhibited expression of fimA	alteration of actin arrangement was not detected	reversible	2	microtubules became more condensed and formed a cortical outer shell at the cell membrane	40	significantly lower fluorescence intensity	over 95%	dose-dependent manner	inhibit host cell invasion	effectively block P. gingivalis cell entry into HOKs	no significant change in the fluorescence intensity; also recorded: able to block the bacterial exit from HOKs
COC(=O)Nc1nc2ccc(C(=O)c3cccs3)cc2[nH]1 [nocodazole, reference compound]	inhibited P. gingivalis invasion of epithelial cells	–	–	–	–	–	–	–	–	–	–	–	effectively block P. gingivalis cell entry into HOKs	–
